Measurements reported in publication PMC11594329, “Development of LAT1-Selective Nuclear Medicine Therapeutics Using Astatine-211” (International Journal of Molecular Sciences, 2024).

Assay: Stability of labeled compound by TLC after labeling
Type: physicochemical
Details: after 24 h and 48 h
Description: All precursors were labeled by “Shirakami Reaction” and purified using an HLB column (Waters Corp, Waltham, MA, USA). All structures are shown in Supplementary Figure S1. After purification, the solution was supplemented with 1% (v/w) of ascorbic acid. The retention time of (S)-2-amino-3-(3-(astato-^211At)-4-methoxyphenyl)-2-methylpropanic acid (^211At-AAMT-OMe-L) determined using High Performance Liquid Chromatography (HPLC) (concentration: 1 MBq/mL, Flow: 1 mL/min; absorbance = 226 nm) was 12.91 min. A COSMOSIL Packed 5C18-MS-II (4.6 mm × 150 mm) Column was used at 40 °C. Mobile phase A was 0.1% formic acid and B was acetonitrile (10–60%, 20 min). […] The stability of ^211At-AAMT-OMe-L in its unpurified state was analyzed by thin layer chromatography (TLC). BAS IP MS 2025E (GE Healthcare Technologies Inc., Chicago, IL, USA) was used for imaging. […] Because optical isomers were only examined for ^211At-AAMT-OMe-L and the remaining labeled products were all L-isomers, the DL notation was omitted when optical isomers were not compared. ^211At-AAMT-O-Me-L in the crude product solution was detected at Rf = 0.80, yielding a radiochemical yield (RCY) of 81.3%. The radiochemical yield and purity of the purified product were 81% and 98%, respectively. ^211At-AAMT-O-Me-D in the crude product solution was detected at Rf = 0.80, yielding a radiochemical yield (RCY) of 79.6%. […]

Question: Which “Stability in unpurified state by TLC” value does the source give for `COc1ccc(C[C@](C)(N)C(=O)O)cc1[211At]` [^211At-AAMT-O-Me-L, (S)-2-amino-3-(3-(astato-^211At)-4-methoxyphenyl)-2-methylpropanic acid] here?
Answer: almost no degradation
